Data published in patent US7056903B2, “Carboxylic acid derivatives as IP antagonists” (Syntex (U.S.A.) LLC, priority 2000, dated 2006).
Counter-ions that a name gives are not always drawn.

## O=C(NC(Cc1ccccc1)C(=O)O)OCc1ccc(COc2cccc(F)c2)cc1 (stereo not shown) [Compound 76, 2-[4-(3-fluoro-phenoxymethyl)-benzyloxycarbonylamino]-3-phenyl-propionic acid]
  melting point: 107.9 to 110 °C

## O=C(N[C@H](Cc1ccc(Br)cc1)C(=O)O)OCc1cc2cc(-c3ccccc3)ccc2o1 [Compound 107, (R)-3-(4-bromo-phenyl)-2-(5-phenyl-benzofuran-2-ylmethoxycarbonylamino)-propionic acid]
  melting point: 136 to 140 °C

## O=C(N[C@H](Cc1ccccc1)C(=O)O)OCc1ccc2oc(-c3cc(F)cc(F)c3)nc2c1 [Compound 162, (R)-2-[2-(3,5-difluoro-phenyl)-benzoxazol-5-ylmethoxycarbonylamino]-3-phenyl-propionic acid]
  melting point: 193.8 to 195 °C

## O=C(N[C@H](Cc1ccccc1)C(=O)O)OCc1cc2cc(-c3ccc(F)cc3)ccc2o1 (hydrate or solvate) [Compound 91, (R)-2-[5-(4-fluoro-phenyl)-benzofuran-2-ylmethoxycarbonylamino]-3-phenyl-propionic acid]
  melting point: 129.5 to 131.5 °C

## O=C(NC(Cc1cnccn1)C(=O)O)OCc1cc2cc(-c3ccccc3)ccc2o1 (stereo not shown) [Compound 165, 2-(5-phenyl-benzofuran-2-ylmethoxycarbonylamino)-3-pyrazin-2-yl-propionic acid]
  melting point: 144.9 to 146 °C

## O=C(N[C@H](Cc1ccccc1)C(=O)O)OCc1cc2cc(-c3ccc(F)c(F)c3)ccc2o1 [Compound 104, (R)-2-[5-(3,4-Difluoro-phenyl)-benzofuran-2-ylmethoxycarbonylamino]-3-phenyl-propionic acid]
  melting point: 98.9 to 101.7 °C

## O=C(N[C@H](Cc1ccc(F)cc1)C(=O)O)OCc1ccc2oc(-c3cc(F)cc(F)c3)nc2c1 [Compound 160, (R)-2-[2-(3,5-difluoro-phenyl)-benzoxazol-5-ylmethoxycarbonylamino]-3-(4-fluoro-phenyl)-propionic acid]
  melting point: 196.2 to 197.7 °C

## N#Cc1cccc(-c2ccc3oc(COC(=O)N[C@H](Cc4ccc(F)cc4)C(=O)O)cc3c2)c1 (hydrate or solvate) [Compound 112, (R)-2-[5-(3-cyano-phenyl)-benzofuran-2-ylmethoxycarbonylamino]-3-(4-fluoro-phenyl)-propionic acid]
  melting point: 84 to 87.5 °C

## O=C(N[C@H](Cc1ccccc1)C(=O)O)OCc1ccc(COc2ccccc2)cc1 [Compound 7, (R)-2-(4-Phenoxymethyl-benzyloxycarbonylamino)-3-phenyl-propionic acid]
  melting point: 115.9 to 116.7 °C

## O=C(N[C@H](Cc1cccc(F)c1)C(=O)O)OCc1cc2cc(-c3ccc(F)cc3)ccc2o1 [Compound 120, (R)-3-(3-fluoro-phenyl)-2-[5-(4-fluoro-phenyl)-benzofuran-2-ylmethoxycarbonylamino]-propionic acid]
  melting point: 81.7 to 82.9 °C

## O=C(NC(Cc1ccc(F)cc1)C(=O)O)OCc1ccc(-c2ccc(O)cc2)cc1 (stereo not shown) [Compound 142, 3-(4-fluoro-phenyl)-2-(4′-hydroxy-biphenyl-4-ylmethoxycarbonylamino)-propionic acid]
  melting point: 65 to 74 °C

## O=C(N[C@H](Cc1ccc(F)cc1)C(=O)O)OCc1cc2cc(-c3ccccc3F)ccc2o1 [Compound 114, (R)-3-(4-fluoro-phenyl)-2-[5-(2-fluoro-phenyl)-benzofuran-2-ylmethoxycarbonylamino]-propionic acid]
  melting point: 105.2 to 110.2 °C

## O=C(N[C@H](Cc1ccc(F)cc1)C(=O)O)OCc1ccc2oc(-c3ccc(F)cc3)nc2c1 [Compound 157, (R)-3-(4-fluoro-phenyl)-2-[2-(4-fluoro-phenyl)-benzoxazol-5-ylmethoxycarbonylamino]-propionic acid]
  melting point: 197.1 to 198.7 °C

## Cn1cc(C[C@@H](NC(=O)OCc2ccc(COc3ccccc3)cc2)C(=O)O)c2ccccc21 [Compound 170, (R)-3-(1-methyl-1H-indol-3-yl)-2-(4-phenoxymethyl-benzyloxycarbonylamino)-propionic acid]
  melting point: 79.9 to 82.6 °C

## O=C(N[C@H](Cc1ccc(F)cc1)C(=O)O)OCc1cc2cc(-c3ccc(F)c(F)c3)ccc2o1 [Compound 122, (R)-2-[5-(3,4-difluoro-phenyl)-benzofuran-2-ylmethoxycarbonylamino]-3-(4-fluoro-phenyl)-propionic acid]
  melting point: 97 to 99.1 °C

## O=C(NC(CNc1ccccc1)C(=O)O)OCc1ccc(-c2ccccc2)cc1 (stereo not shown) [Compound 179, 2-(biphenyl-4-ylmethoxycarbonylamino)-3-phenylamino-propionic acid]
  melting point: 143 to 146 °C

## CC(C)n1cc(CC(NC(=O)OCc2ccc(-c3ccccc3)cc2)C(=O)O)c2ccccc21 (stereo not shown) [Compound 148, 2-(biphenyl-4-ylmethoxycarbonylamino)-3-(1-isopropyl-1H-indol-3-yl)-propionic acid]
  melting point: 143.1 to 144.8 °C

## Cc1ccc(-c2ccc3oc(COC(=O)N[C@H](Cc4ccccc4)C(=O)O)cc3c2)cc1 (hydrate or solvate) [Compound 95, (R)-2-[5-(4-methyl-phenyl)-benzofuran-2-ylmethoxycarbonylamino]-3-phenyl-propionic acid]
  melting point: 151 to 154 °C

## O=C(N[C@H](Cc1ccccc1)C(=O)O)OCc1nc2cc(-c3ccccc3)ccc2o1 (as salt: ammonium) [Compound 53, (R)-3-phenyl-2-(5-phenyl-benzoxazol-2-ylmethoxycarbonylamino) propionic acid]
  melting point: 150.9 to 152.7 °C

## O=C(NC(Cc1ccccc1)C(=O)O)OCc1ccc(COCc2ccccc2)cc1 (stereo not shown) [Compound 90, 2-(4-benzyloxymethyl-benzyloxycarbonylamino)-3-phenyl-propionic acid]
  melting point: 78.3 to 79.9 °C

## O=C(NC(Cc1ccccc1)C(=O)O)OCc1cc2cc(-c3ccncc3)ccc2o1 (stereo not shown) [Compound 174, 3-phenyl-2-(5-pyridin-4-yl-benzofuran-2-ylmethoxycarbonylamino)-propionic acid]
  melting point: 119 to 121 °C

## O=C(N[C@H](Cc1ccccc1)C(=O)O)OCc1cc2cc(-c3cc(F)ccc3F)ccc2o1 [Compound 103, (R)-2-[5-(2,5-difluoro-phenyl)-benzofuran-2-ylmethoxycarbonylamino]-3-phenyl-propionic acid]
  melting point: 89.4 to 92.6 °C

## O=C(N[C@H](Cc1ccccc1)C(=O)O)OCc1ccc(OCCOc2ccccc2)cc1 [Compound 89, (R)-2-[4-(2-phenoxy-ethoxy)-benzyloxycarbonylamino]-3-phenyl-propionic acid]
  melting point: 130 to 131.3 °C

## N#Cc1cccc(-c2nc3cc(COC(=O)N[C@H](Cc4ccc(F)cc4)C(=O)O)ccc3o2)c1 [Compound 159, (R)-2-[2-(3-cyano-phenyl)-benzoxazol-5-ylmethoxycarbonylamino]-3-(4-fluoro-phenyl)-propionic acid]
  melting point: 208.5 to 209.2 °C

## O=C(N[C@H](Cc1ccccc1)C(=O)O)OCc1cc2cc(-c3cccnc3)ccc2o1 [Compound 124, (R)-3-phenyl-2-(5-pyridin-3-yl-benzofuran-2-ylmethoxycarbonylamino)-propionic acid]
  melting point: 143 to 145.7 °C

## Cc1ccc(-c2cc(COC(=O)NC(Cc3ccccc3)C(=O)O)co2)cc1 (stereo not shown) [Compound 127, 3-phenyl-2-(5-p-tolyl-furan-3-ylmethoxycarbonylamino)-propionic acid]
  melting point: 67.7 to 68.2 °C

## COc1cccc(OCc2ccc(COC(=O)NC(Cc3ccccc3)C(=O)O)cc2)c1 (stereo not shown) (hydrate or solvate) [Compound 154, 2-[4-(3-methoxy-phenoxymethyl)-benzyloxycarbonylamino]-3-phenyl-propionic acid]
  melting point: 62.5 to 64.8 °C

## O=C(NC(Cc1ccccc1)C(=O)O)OCc1ccc(COc2ccccc2F)cc1 (stereo not shown) [Compound 75, 2-[4-(2-fluoro-phenoxymethyl)-benzyloxycarbonylamino]-3-phenyl-propionic acid]
  melting point: 114 to 117 °C
